Source: US11912676B1, “N'-[(4-chlorobenzoyl)oxy]-1,3-benzothiazole-2-carboximidamide as an antitumor and antimicrobial compound” (KING FAISAL UNIVERSITY, priority 2023, dated 2024)

What was measured:
[1] = system: human prostate cancer cells (PC3); experiment: Cytotoxicity by SRB assay, PC3 cells; format: cell-based; conditions: 0.01 μM to 100 μM, 72 h
Procedure: (§1) The human prostate cancer cells (PC3) and human osteosarcoma cells (MG-63) were obtained from Nawah Scientific Inc. (Mokatam, Cairo, Egypt) and cultured in DMEM (Dulbecco's modified eagle's medium), Gibco, USA, supplemented with fetal bovine serum (FBS) at a concentration of 10% and 100 U/mL of penicillin and streptomycin (PS). The Cells were incubated at 37° C. in a humidified environment that contained 5% CO2. Cells were seeded in 96-well plates as aliquots of 100 μL cell suspension and incubated in a complete media for 24 h. afterward, cells were treated with N′-[(4-chlorobenzoyl)oxy]-1,3-benzothiazole-2-carboximidamide at diverse concentrations ranging from 0.01 μM to 100 μM for 72 h. Then, cells were fixed at 4° C. for one hour with 150 μL of 10% trichloroacetic acid (TCA). After washing the cells five times with distilled water, 70 μL of sulforhodamine (SRB) solution (0.4% w/v) was added and incubated for 10 min at room temperature in a dark place. […] Then, 150 μL of Tris pH 10.5 (10 mM) was added, and the absorbance was measured at 540 nm using a BMG LABTECH®--FLUOstar Omega microplate reader (Ortenberg, Germany). Half maximal inhibitory concentrations (IC50) values were calculated for each experiment using GraphPad Prism 6 software. […] The inhibition was calculated using the following equation: Inhibition %=100−Average Viability

[2] = system: human osteosarcoma cells (MG-63); experiment: Cytotoxicity by SRB assay, MG-63 cells; format: cell-based; conditions: 0.01 μM to 100 μM, 72 h
Procedure: as §1

**Q.** With `N/C(Cc1nc2ccccc2s1)=N\OC(=O)c1ccc(Cl)cc1` as the compound, how does the “antiproliferative activity against PC3 cells” value [1] read?
**A.** excellent antiproliferative activities

**Q.** And the “antiproliferative activity against MG-63 cells” value [2]?
**A.** excellent antiproliferative activities

**Q.** And the melting point?
**A.** 160 to 162 °C
